Reference: patent publication US20220016079A1, “COMBINATION TREATMENT OF HIV INFECTIONS” (priority 2018, published 2022)
Several values for one entry are separate records, joined by “and”; a condition that tells them apart may be missing. Equal entries are not always repeated.

Key:
[1] = system: latent HIV in resting CD4+ T-lymphocytes; test: HIV reactivation in resting CD4+ T-lymphocytes derived from ART-treated HIV patients (HIV RNA in supernatant, qPCR); type: cell-based, human
Method: The experiments of this example analyzed the ability of DEB10-1143 at reactivating latent HIV in resting CD4+ T-lymphocytes isolated from peripheral blood monocytic cells (PBMCs) derived from HIV patients currently under ART. Drug titration and kinetic studies were conducted. Debio-1143 was tested alone or in combination with ART.
Method: Resting CD4+ T cells were isolated using the EasySep™ Human Resting CD4+ T Cell Isolation Kit, which is designed to isolate resting CD4+ T cells from fresh or previously frozen PBMCs by immunomagnetic negative selection. The EasySep™ procedure involves labeling unwanted cells with antibody complexes and magnetic particles. The magnetically labeled cells are separated from the untouched desired cells by using an EasySep™ magnet and simply pouring or pipetting the desired cells into a new tube. Isolated resting CD4+ T cells (50,000 cells/50 μL) were treated in duplicate for 0, 24, 48 and 72 h with increasing concentrations of DEB10-1143 (0 to 20.5 μM) used alone or in combination with ART (20 μM TDF, 10 μM FTC and 1 μM Raltegravir). Amounts of virions released from cells were quantified at the indicated time points by quantifying HIV RNA levels (HIV RNA copies/mL) in supernatant of cell culture using one-step reverse transcriptase quantitative real-time PCR (ABI custom TaqMan Assays-by-Design) according to the manufacturer's instructions. Primers were 5-[…]-3 and 5-[…]-3, and MGB probe 5-FAM-[…]-Q-3, where FAM is 6-carboxyfluorescein.

HIV-1 (JR-CSF) = test: Efficacy study in HIV-1 infected humanized BLT mice: viral RNA levels in organ reservoirs (qPCR); type: in vivo
Source text: Methods: Humanized BLT mice were generated by implanting human fetal liver and thymus tissues under the kidney capsule of an immunodeficient NOD scid gamma (NSG=NOD.Cg-Prkdc^scidII12rg^tm1Wjl/SzJ) mouse, followed by an administration of autologous human fetal liver CD34+ cells (human hematopoietic stem cells). In BLT mice, T cell education occured in the human thymic tissue, resulting in complete systemic reconstitution of all major human hematopoietic lineages including T, B, monocyte/macrophage, dendritic, and natural killer cells. The extensive systemic and genital mucosal reconstitution with human lymphoid cells rendered female humanized BLT mice susceptible to both vaginal and rectal HIV infection.
Humanized BLT mice were generated by implanting 1-mm^3 pieces of human fetal liver and thymus tissues (Advanced Bioscience Resources) under the kidney capsule in 6 to 8-week-old female NSG mice (Jackson Laboratories) bred at The Scripps Research Institute (TSRI). Each cohort was produced with tissues from a single donor. CD34+ HSPC were purified from autologous fetal liver tissue, isolated by magnetic bead selection for CD34+ cells (Miltenyi), phenotyped cytometrically for engraftment success (CD34+, HLA DR-), and cryopreserved until injection (200,000 CD34+ cells) into mice 3 weeks after thymus/liver implantation. Human reconstitution was verified by flow cytometry (CD45+, CD3+, CD4+ and CD8+) in peripheral blood of the mice.
R5 HIV (JR-CSF) was produced by 293T transfection and quantified by p24 ELISA. Humanized mice were infected with JR-CSF (200 ng of p24) and viral replication quantified weekly by qPCR for up to 16 weeks.
Methods: Thirty-two BLT mice were infected with HIV-1. 12 weeks later mice were split in 4 groups (n=8), treated with various regimen and analyzed for 6 weeks. Group A received both vehicles for 4 weeks. Group B received Debio-1143 (100 mg/kg; QD1-5, p.o.) for 4 weeks (Debio-1143 was given 5 days a week for 4 weeks). Group C received the anti-PD-1 antibody (200 μg/dose, i.p., BIW) for 4 weeks. Group D received the combination of Debio-1143 (100 mg/kg; QD1-5, p.o.) together with the anti-PD-1 antibody (200 μg/dose i.p. BIW) for 4 weeks. Body weight, HIV-1 loads and PD-1 expression on CD8+ T cells were analyzed once weekly. After the 4 weeks of treatment, three mice per group were sacrificed for bioanalytical assessments. The remaining mice (4×5=20) were sacrificed 2 weeks after treatment completion and viral RNA levels in organ reservoirs (spleen, thymic organoid, lung, spleen, lymph nodes and liver) were quantified by qPCR.

[2] = system: latent HIV-1 in 2D10 cells; test: HIV-1 reactivation in latent GFP-reporter 2D10 cells, Debio 1143 and other LRAs alone or in combination; type: cell-based; conditions: single agents, 48 h
Method: We compared the efficacy of Debio-1143 at reversing HIV-1 latency with that of other LRAs. We then analyzed the cytotoxicity of Debio-1143 with that of the other LRAs on 2D10 cells. Drug titration was conducted.
Methods: HIV-1 latent GFP-reporter 2D10 cells (100,000 cells/100 μL) were treated in triplicate for 48 h with increasing concentrations of either only Debio-1143 or the LRAs (2000 nM or 20000 nM), or with Debio 1143 (2000 nM or 20000 nM) in combination with the LRAs at a single predetermined concentration (see Table 2). HIV reactivation was analyzed via GFP expression by flow cytometry.

[3] = system: latent HIV in resting CD4+ T-lymphocytes; test: HIV-1 reactivation in resting CD4+ T cells from PBMCs of three ART-treated HIV patients (HIV RNA in supernatant); type: cell-based, human
Source text: The experiments of this example analyzed the ability of IAPa, ICIs, or IAPa/ICI combinations at reactivating latent HIV in resting CD4+ T-lymphocytes isolated from peripheral blood monocytic cells (PBMCs) derived from HIV patients currently under ART.
Method: Resting CD4+ T cells were isolated from PBMCs of three ART-treated HIV patients by negative selection and magnetic separation (Easysep Mouse/Human Chimera Isolation Kits from […] technologies). Isolated resting CD4+ T cells (50,000 cells/50 μL) were treated in duplicate for 48h with different IAPa (1 μM) or ICI (10 μg/ml) in monotherapy, or the IAPa/ICI combinations. Amounts of virions released from cells were quantified at the indicated time points by quantifying HIV RNA levels (HIV RNA copies/mL) in supernatant of cell culture using one-step reverse transcriptase quantitative real-time PCR (ABI custom TaqMan Assays-by-Design) according to the manufacturer's instructions. Primers were 5-[…]-3 and 5-[…]-3, and MGB probe 5-FAM-[…]-Q-3, where FAM is 6-carboxyfluorescein.
The experiment was carried out using the same agents as described above for Example 8.1 (with the exception that no birinapant was used).

CN[C@@H](C)C(=O)N[C@H]1CN(C(=O)CC(C)C)CC[C@H]2CC[C@@H](C(=O)NC(c3ccccc3)c3ccccc3)N2C1=O [Debio 1143, (5S,8S,10aR)-N-benzhydryl-5-((S)-2-(methylamino)propanamido)-3-(3-methylbutanoyl)-6-oxodecahydropyrrolo[1,2-a][1,5]diazocine-8-carboxamide]
influence of ART on the degree of latency reversal ([1]; in combination with ART (20 μM TDF, 10 μM FTC, 1 μM Raltegravir)): did not influence | time after which reactivation was already maximal ([1]; resting CD4+ T cells from two HIV patients under ART): ≤ 24 h | reactivation of latent HIV (HIV RNA copies/mL in supernatant) ([1]; resting CD4+ T cells from two HIV patients under ART, 0 to 20.5 μM, 0-72 h): possesses the capacity of reactivating latent HIV | HIV load in organs (viral RNA levels in organ reservoirs) (HIV-1 (JR-CSF); 2 weeks after treatment completion, CD4+ cells of spleen, thymic organoid, lung, lymph nodes, liver): has no effect | Tissue HIV Load at Week 18, Liver (HIV-1 (JR-CSF); individual mice #1-5): 5.2 Log Viral RNA Copies/100,000 CD4+ Cells and 4.2 Log Viral RNA Copies/100,000 CD4+ Cells and 4.9 Log Viral RNA Copies/100,000 CD4+ Cells and 5.5 Log Viral RNA Copies/100,000 CD4+ Cells and 5.9 Log Viral RNA Copies/100,000 CD4+ Cells | Tissue HIV Load at Week 18, Lung (HIV-1 (JR-CSF); individual mice #1-5): 3.9 Log Viral RNA Copies/100,000 CD4+ Cells and 5.7 Log Viral RNA Copies/100,000 CD4+ Cells and 4.4 Log Viral RNA Copies/100,000 CD4+ Cells and 6.1 Log Viral RNA Copies/100,000 CD4+ Cells and 6.5 Log Viral RNA Copies/100,000 CD4+ Cells | Tissue HIV Load at Week 18, Lymph nodes (HIV-1 (JR-CSF); individual mice #1-5): 4.4 Log Viral RNA Copies/100,000 CD4+ Cells and 5 Log Viral RNA Copies/100,000 CD4+ Cells and 5.3 Log Viral RNA Copies/100,000 CD4+ Cells and 6.3 Log Viral RNA Copies/100,000 CD4+ Cells and 7.2 Log Viral RNA Copies/100,000 CD4+ Cells | Tissue HIV Load at Week 18, Spleen (HIV-1 (JR-CSF); individual mice #1-5): 4.4 Log Viral RNA Copies/100,000 CD4+ Cells and 6.4 Log Viral RNA Copies/100,000 CD4+ Cells and 5.2 Log Viral RNA Copies/100,000 CD4+ Cells and 5.5 Log Viral RNA Copies/100,000 CD4+ Cells and 6.7 Log Viral RNA Copies/100,000 CD4+ Cells | Tissue HIV Load at Week 18, Thymic organoid (HIV-1 (JR-CSF); individual mice #1-5): 4.6 Log Viral RNA Copies/100,000 CD4+ Cells and 5.3 Log Viral RNA Copies/100,000 CD4+ Cells and 3.9 Log Viral RNA Copies/100,000 CD4+ Cells and 5.7 Log Viral RNA Copies/100,000 CD4+ Cells and 6.2 Log Viral RNA Copies/100,000 CD4+ Cells | Tissue HIV Load at Week 18, Liver (HIV-1 (JR-CSF); mean of 5 mice): 5.14 Log Viral RNA Copies/100,000 CD4+ Cells | Tissue HIV Load at Week 18, Lung (HIV-1 (JR-CSF); mean of 5 mice): 5.32 Log Viral RNA Copies/100,000 CD4+ Cells | Tissue HIV Load at Week 18, Lymph nodes (HIV-1 (JR-CSF); mean of 5 mice): 5.64 Log Viral RNA Copies/100,000 CD4+ Cells | Tissue HIV Load at Week 18, Spleen (HIV-1 (JR-CSF); mean of 5 mice): 5.64 Log Viral RNA Copies/100,000 CD4+ Cells | Tissue HIV Load at Week 18, Thymic organoid (HIV-1 (JR-CSF); mean of 5 mice): 5.14 Log Viral RNA Copies/100,000 CD4+ Cells | HIV-1 latency reversal (GFP expression) [2]: reversed HIV-1 latency | potency as LRA compared with other LRAs [2]: one of the most potent LRA | latency reversal class (HIV RNA copies/ml in supernatant) ([3]; IAPa 1 μM monotherapy (0.1% DMSO, no ICI), 48 h): 1 (Between 501 and 1000 RNA copies/ml were classified as “1”) | latency reversal class (HIV RNA copies/ml in supernatant) ([3]; IAPa 1 μM with Control IgG1, 48 h): 1 (Between 501 and 1000 RNA copies/ml were classified as “1”) | latency reversal class (HIV RNA copies/ml in supernatant) ([3]; IAPa 1 μM with Control IgG2, 48 h): 1 (Between 501 and 1000 RNA copies/ml were classified as “1”)
